Assay [1] deals with CB-iPSC6.2-derived retinal cups (RCs). Put plainly: Retinoic acid treatment of hiPSC-derived retinal cups, rod-opsin expression by immunohistochemistry. The note with it: for rod-opsin expression (qualitative, microscopic observation): 3 independent experiments. The format is cell-based, human. The procedure: (§1) To promote photoreceptor maturation, suspension cultures of RCs were supplemented daily with 1 μM all-trans retinoic acid (RA; Sigma) at various time windows: W7-W17; W7-W14 or W10-W14; subsequently, RA concentration was decreased to 0.5 μM.
(§2) RCs were fixed in 4% PFA for 30 min. […] DAPI was used for nuclear counterstaining (Molecular Probes).

In assay [2] the test system is KA.1- and IMR90-4-derived RCs. Described as above. The note with it: RA treatment in W10-W14. The format is cell-based, human. On the procedure: as §1, §2

In the case of `CC1=C(/C=C/C(C)=C/C=C/C(C)=C/C(=O)O)C(C)(C)CCC1` [retinoic acid, all-trans retinoic acid], the “rod-opsin expression (qualitative, microscopic observation)” value in assay [1] (1 μM RA during W10-W14, W17 and W21) is “dispersed cells with strong rod-opsin expression in their cell bodies already at W17”; in assay [1] (1 μM RA in W7-W14), “low levels of rod-opsin expression in the distal part of photoreceptor cells”; in assay [2] it was “induction of rod-opsin expression was also observed, although at a later time and less efficiently than in CB-iPSC6.2-derived RCs”. In assay [1] (1 μM retinoic acid W10-W14, evaluated at W17, n=8), the “retinal cups showing dispersed cells with higher rod-opsin expression, also in cell bodies” value is reported as ~50%. For the same molecule, the “retinal cups showing a significant increase in the number of photoreceptors expressing rod opsin” value in assay [1] (1 μM retinoic acid W10-W14, evaluated by W21, n=20) is listed as 90%.

The values above are taken from US11981919B2, “Methods for forming three-dimensional human retinal tissue in vitro” (THE JOHNS HOPKINS UNIVERSITY, priority 2014, dated 2024).
